Experimental findings from patent publication US10669283B2, “Compound and pharmacologically acceptable salt thereof” (MEIJI SEIKA PHARMA CO., LTD., priority 2016, dated 2020) are described below.

Data set [1] can be described thus: Hepatic metabolic stability (rat liver microsome method). The data set is classed as in vitro ADME. The settings on record: rat liver microsomes 0.5 mg/mL, test substance 1 μM, NADPH 1 mM, 37° C., 30 minutes. The procedure:
Metabolic stability in rat liver microsomes was evaluated by the following method. In 100 mM of potassium phosphate buffer solution (pH 7.4), liver microsomes (concentration at reaction: 0.5 mg/mL) and the test substance (concentration at reaction: 1 μM) were preincubated at 37° C. Five minutes later, 100 mM of potassium phosphate buffer (pH 7.4) solution of NADPH (concentration at reaction: 1 mM) was mixed thereto to start the reaction. After a predetermined time passed, acetonitrile was mixed to the reaction mixture to stop the reaction. Here, the reaction time was 0 and 30 minutes, and drug concentration measurement was performed for each time period using LC-MS. The % remaining value of the test compound was calculated from the value for 0 minutes and the value for 30 minutes, using the calculation formula below: % Remaining=(Value for 30 Minutes/Value for 0 Minutes)×100
The results of measuring the rat liver microsome metabolic Stability (% remaining for 30-minute reaction) for the test compound by the above method were evaluated in accordance with the following evaluated basis; A: a % remaining rate of 75% or more, B: 60% or more and less than 75%, C: 45% or more and less than 60%, and D: less than 45%.
A general note: Liver microsomes are vesicles of endoplasmic reticulum, rich in cytochrome P450 enzymes.

For a further data set, the system named is PDE4. The data set can be described thus: PDE4 inhibition, scintillation proximity assay (SPA). The data set is classed as biochemical. The method in brief:
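Scintillation proximity read-out: [2,8-3H]-cAMP hydrolysis by PDE4 ran 120 min at room temperature in Tris-HCl pH 7.4 buffer with 8.3 mM MgCl2, 1.7 mM EGTA and 3 mg/mL BSA. Bead-bound product (YSi-SPA with ZnSO4, 15 min) counted; blank lacks enzyme, control has DMSO only.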
A general note: Scintillation proximity formats need no separation of bound from free tracer.

[2] abbreviates: scintillation proximity assay, class symbols, read-out: PDE4 Inhibitory Activity.
Setting [3] is: scintillation proximity assay (SPA), evaluated as classes A, B, C, read-out: PDE4 Inhibitory Activity (concentration for the inhibition rate of 50%).

Read-outs that look alike come from different tables or passages of the source.

With `CC(O)(CO)C(F)(F)Oc1ccc(-c2nccs2)c2oc(N3CC4CC(C3)N4)nc12` (racemic) [Example 326, 3-((2-(3,6-Diazabicyclo[3.1.1]heptan-3-yl)-7-(thiazol-2-yl)benzo[d]oxazol-4-yl)oxy)-3,3-difluoro-2-methylpropane-1,2-diol], the “Residual ratio (% remaining for 30-minute reaction)” value in data set [1] was “A (a % remaining rate of 75% or more)”. For the same compound, the IC50 in the data set with PDE4 (setting [2]) is below 100 nM.
Consider `CC(O)C(F)(F)Oc1ccc(-c2nccs2)c2oc(N3CC4CC(C3)N4)nc12` (single isomer, unassigned) [Example 251, 1-((2-(3,6-Diazabicyclo[3.1.1]heptan-3-yl)-7-(thiazol-2-yl)benzo[d]oxazol-4-yl)oxy)-1,1-difluoropropan-2-ol], for which the “Residual ratio (% remaining for 30-minute reaction)” value in data set [1] is recorded as “A (a % remaining rate of 75% or more)”. The IC50 in the data set on PDE4 (setting [3]) is below 100 nM.
Taken in the same sequence, the figures for `CC(O)C(F)(F)Oc1ccc(-c2nccs2)c2oc(N3CC4CC(C3)N4)nc12` (single isomer, unassigned) [Example 252, 1-((2-(3,6-Diazabicyclo[3.1.1]heptan-3-yl)-7-(thiazol-2-yl)benzo[d]oxazol-4-yl)oxy)-1,1-difluoropropan-2-ol] were “A (a % remaining rate of 75% or more)” and below 100 nM.
Turning to `CC(O)(CO)C(F)(F)Oc1ccc(-c2nccs2)c2oc(N3CC4CC(C3)N4)nc12` (single isomer, unassigned) [Example 364, 3-((2-(3,6-diazabicyclo [3.1.1]heptan-3-yl)-7-(thiazol-2-yl)benzo[d]oxazol-4-yl)oxy)-3,3-difluoro-2-methylpropane-1,2-diol], the “Residual ratio (% remaining for 30-minute reaction)” value in data set [1] is listed as “A (a % remaining rate of 75% or more)”. In addition, the IC50 with PDE4 (setting [2]) was below 100 nM.
As to `CC(O)(CO)C(F)(F)Oc1ccc(-c2nccs2)c2oc(N3CC4CC(C3)N4)nc12` (single isomer, unassigned) [Example 365, 3-((2-(3,6-diazabicyclo [3.1.1]heptan-3-yl)-7-(thiazol-2-yl)benzo[d]oxazol-4-yl)oxy)-3,3-difluoro-2-methylpropane-1,2-diol], in data set [1], the “Residual ratio (% remaining for 30-minute reaction)” value is given as “A (a % remaining rate of 75% or more)”. Besides, in the data set on PDE4 (setting [2]), the IC50 was below 100 nM.
With `CC(O)C(F)(F)Oc1ccc(-c2nccs2)c2oc(N3CC4CC(C3)N4O)nc12` (single isomer, unassigned) [Example 372, 3-(4-(1,1-difluoro-2-hydroxypropoxy)-7-(thiazol-2-yl)benzo [d]oxazol-2-yl)-3,6-diazabicyclo[3.1.1] heptan-6-ol], in data set [1], the “Residual ratio (% remaining for 30-minute reaction)” value is “B (60% or more and less than 75%)”. Also, the IC50 in the data set on PDE4 (setting [2]) was below 100 nM.
With `CC(O)C(F)(F)Oc1ccc(-c2nccs2)c2oc(N3CC4CC(C3)N4O)nc12` (single isomer, unassigned) [Example 373, 3-(4-(1,1-difluoro-2-hydroxypropoxy)-7-(thiazol-2-yl)benzo [d]oxazol-2-yl)-3,6-diazabicyclo[3.1.1] heptan-6-ol], the “Residual ratio (% remaining for 30-minute reaction)” value in data set [1] was “B (60% or more and less than 75%)”. Moreover, in the data set with PDE4 (setting [2]), the IC50 is below 100 nM.
As for `FC(F)(F)Oc1c(Cl)cc(-c2nccs2)c2oc(N3CC4CC(C3)N4)nc12` [Example 3, 2-(3,6-Diazabicyclo[3.1.1]heptan-3-yl)-5-chloro-7-(thiazol-2-yl)-4-(trifluoromethoxy)benzo[d]oxazole], in data set [1], the “Residual ratio (% remaining for 30-minute reaction)” value is “B (60% or more and less than 75%)”. In addition, the IC50 in the data set on PDE4 (setting [3]) is below 100 nM.
Consider `FC(F)(F)Oc1c(Cl)cc(-n2cccn2)c2oc(N3CC4CCC(C3)N4)nc12` [Example 5, 2-(3,8-Diazabicyclo[3.2.1]octan-3-yl)-5-chloro-7-(1H-pyrazol-1-yl)-4-(trifluoromethoxy)benzo[d]oxazole], for which the “Residual ratio (% remaining for 30-minute reaction)” value in data set [1] is “B (60% or more and less than 75%)”. For the same compound, the IC50 in the data set on PDE4 (setting [3]) was below 100 nM.
As for `FC(F)(F)Oc1c(Cl)cc(-c2cscn2)c2oc(N3CC4CCC(C3)N4)nc12` [Example 8, 2-(3,8-Diazabicyclo[3.2.1]octan-3-yl)-5-chloro-7-(thiazol-4-yl)-4-(trifluoromethoxy)benzo[d]oxazole], the “Residual ratio (% remaining for 30-minute reaction)” value in data set [1] is “A (a % remaining rate of 75% or more)”. Besides, the IC50 with PDE4 (setting [3]) was below 100 nM.
Consider `Fc1ccc(-c2cc(Cl)c(OC(F)(F)F)c3nc(N4CC5CCC(C4)N5)oc23)nc1` [Example 10, 2-(3,8-Diazabicyclo[3.2.1]octan-3-yl)-5-chloro-7-(5-fluoropyridin-2-yl)-4-(trifluoromethoxy)benzo[d]oxazole], for which the “Residual ratio (% remaining for 30-minute reaction)” value in data set [1] is “A (a % remaining rate of 75% or more)”. Besides, the IC50 in the data set with PDE4 (setting [3]) was below 100 nM.
For the compound `FC(F)(F)c1c(Cl)cc(-c2ccccn2)c2oc(N3CC4CCCC(C3)N4)nc12` [Example 12, 2-(3,9-Diazabicyclo[3.3.1]nonan-3-yl)-5-chloro-7-(pyridin-2-yl)-4-(trifluoromethyl)benzo[d]oxazole], in data set [1], the “Residual ratio (% remaining for 30-minute reaction)” value is “B (60% or more and less than 75%)”. Moreover, the IC50 with PDE4 (setting [3]) was below 100 nM.
On to `FC(F)(F)c1c(Cl)cc(-n2cccn2)c2oc(N3CC4CC(C3)N4)nc12` [Example 17, 2-(3,6-Diazabicyclo[3.1.1]heptan-3-yl)-5-chloro-7-(1H-pyrazol-1-yl)-4-(trifluoromethyl)benzo[d]oxazole], for which the “Residual ratio (% remaining for 30-minute reaction)” value in data set [1] was “B (60% or more and less than 75%)”. Besides, the IC50 in the data set with PDE4 (setting [3]) is below 100 nM.
Regarding `FC(F)(F)Oc1ccc(-c2nccs2)c2oc(N3CC4CC(C3)N4)nc12` [Example 29, 2-(3,6-Diazabicyclo[3.1.1]heptan-3-yl)-7-(thiazol-2-yl)-4-(trifluoromethoxy)benzo[d]oxazole], the “Residual ratio (% remaining for 30-minute reaction)” value in data set [1] is “B (60% or more and less than 75%)”. Besides, the IC50 in the data set on PDE4 (setting [3]) was below 100 nM.
Take `OC(c1cc(-c2nccs2)c2oc(N3CC4CCC(C3)N4)nc2c1)C(F)F` (stereo not drawn) [Example 104, 1-(2-(3,8-Diazabicyclo[3.2.1]octan-3-yl)-7-(thiazol-2-yl)benzo[d]oxazol-5-yl)-2,2-difluoroethan-1-ol]: the “Residual ratio (% remaining for 30-minute reaction)” value in data set [1] was “B (60% or more and less than 75%)”. Moreover, in the data set on PDE4 (setting [3]), the IC50 is below 100 nM.
On to `FC(F)(F)C(OCc1nnn[nH]1)c1ccc(-c2nccs2)c2oc(N3CC4CCC(C3)N4)nc12` (stereo not drawn) [Example 230, 4-(1-((1H-tetrazol-5-yl)methoxy)-2,2,2-trifluoroethyl)-2-(3,8-diazabicyclo[3.2.1]octan-3-yl)-7-(thiazol-2-yl)benzo[d]oxazole], for which, in data set [1], the “Residual ratio (% remaining for 30-minute reaction)” value is “A (a % remaining rate of 75% or more)”. Besides, the IC50 in the data set on PDE4 (setting [3]) is below 100 nM.
The like results for `FC(F)(F)C(OCc1nnn[nH]1)c1ccc(-c2nccs2)c2oc(N3CC4CC(C3)N4)nc12` (stereo not drawn) [Example 231, 4-(1-((1H-tetrazol-5-yl)methoxy)-2,2,2-trifluoroethyl)-2-(3,6-diazabicyclo[3.1.1]heptan-3-yl)-7-(thiazol-2-yl)benzo[d]oxazole] were, in that order, “A (a % remaining rate of 75% or more)” and below 100 nM.
As to `CC(C)(O)C(F)(F)Oc1ccc(-c2nccs2)c2oc(N3CC4CC(C3)N4)nc12` [Example 248, 1-((2-(3,6-Diazabicyclo[3.1.1]heptan-3-yl)-7-(thiazol-2-yl)benzo[d]oxazol-4-yl)oxy)-1,1-difluoro-2-methylpropan-2-ol], in data set [1], the “Residual ratio (% remaining for 30-minute reaction)” value is on record as “A (a % remaining rate of 75% or more)”. Moreover, the IC50 with PDE4 (setting [3]) is below 100 nM.
